# Assay results: patent US20040156869A1, “2-substituted quinazolin-4-ylamine analogues” (Neurogen Corporation, priority 2002, published 2004)
# Biological target: human capsaicin receptor (VR1) (Homo sapiens, UniProt Q8NER1)
# Experiment: Capsaicin receptor binding assay ([3H]RTX competition, VR1-transfected HEK293 membranes)
# human capsaicin receptor (VR1), sequence (Q8NER1 whole entry): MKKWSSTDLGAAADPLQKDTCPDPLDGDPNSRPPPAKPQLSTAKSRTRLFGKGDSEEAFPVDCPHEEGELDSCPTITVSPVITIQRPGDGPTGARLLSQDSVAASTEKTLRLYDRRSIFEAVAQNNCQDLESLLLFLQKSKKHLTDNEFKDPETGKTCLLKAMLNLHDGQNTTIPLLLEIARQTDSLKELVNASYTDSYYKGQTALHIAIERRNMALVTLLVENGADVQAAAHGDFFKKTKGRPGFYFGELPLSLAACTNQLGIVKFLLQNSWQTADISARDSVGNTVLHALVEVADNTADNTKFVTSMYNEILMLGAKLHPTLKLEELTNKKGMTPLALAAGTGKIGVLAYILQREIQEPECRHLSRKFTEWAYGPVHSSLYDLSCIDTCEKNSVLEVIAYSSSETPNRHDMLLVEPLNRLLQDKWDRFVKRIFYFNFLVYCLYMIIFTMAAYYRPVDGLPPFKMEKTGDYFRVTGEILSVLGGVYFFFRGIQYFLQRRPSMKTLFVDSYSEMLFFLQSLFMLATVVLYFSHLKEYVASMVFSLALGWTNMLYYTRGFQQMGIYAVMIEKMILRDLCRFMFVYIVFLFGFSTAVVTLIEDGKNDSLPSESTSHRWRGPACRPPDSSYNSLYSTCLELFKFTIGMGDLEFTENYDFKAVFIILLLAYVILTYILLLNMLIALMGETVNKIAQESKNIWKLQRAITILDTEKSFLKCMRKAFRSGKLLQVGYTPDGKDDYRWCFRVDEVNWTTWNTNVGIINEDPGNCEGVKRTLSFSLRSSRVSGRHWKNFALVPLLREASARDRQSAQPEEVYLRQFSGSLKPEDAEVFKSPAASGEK
row,Ki,SMILES
1,< 1000 nM,"CC1(C)CN(Cc2nc(Nc3ccc(C(F)(F)F)cc3)c3ccc(-c4ncccc4C(F)(F)F)cc3n2)CCO1 [Compound 739, [2-(2,2-Dimethyl-morpholin-4-ylmethyl)-7-(3-trifluoromethyl-pyridin-2-yl)-quinazolin-4-yl]-(4-trifluoromethyl-phenyl)-amine]"
2,< 1000 nM,"CC1(C)CN(Cc2nc(Nc3ccc(C(F)(F)F)cc3)c3ccc(-c4ncccc4Cl)cc3n2)CCO1 [Compound 740, [7-(3-Chloro-pyridin-2-yl)-2-(2,2-dimethyl-morpholin-4-ylmethyl)-quinazolin-4-yl]-(4-trifluoromethyl-phenyl)-amine]"
3,< 1000 nM,"CC1(C)CN(Cc2nc(Nc3ccc(C4CC4)cc3)c3ccc(-c4ncccc4C(F)(F)F)cc3n2)CCO1 [Compound 741, (4-Cyclopropyl-phenyl)-[2-(2,2-dimethyl-morpholin-4-ylmethyl)-7-(3-trifluoromethyl-pyridin-2-yl)-quinazolin-4-yl]-amine]"
4,< 1000 nM,"CC1(C)CN(Cc2nc(Nc3ccc(C(F)(F)F)cc3)c3ncc(-c4ncccc4C(F)(F)F)cc3n2)CCO1 [Compound 742, [2-(2,2-Dimethyl-morpholin-4-ylmethyl)-7-(3-trifluoromethyl-pyridin-2-yl)-pyrido[3,2-d]pyrimidin-4-yl]-(4-trifluoromethyl-phenyl)-amine]"
5,< 1000 nM,"Cc1cccnc1-c1ccc2c(Nc3ccc(C(F)(F)F)cc3)nc(CN3CCCC(C)(C)C3)nc2n1 [Compound 746, [2-(3,3-Dimethyl-piperidin-1-ylmethyl)-7-(3-methyl-pyridin-2-yl)-pyrido[2,3-d]pyrimidin-4-yl]-(4-trifluoromethyl-phenyl)-amine]"

# The remaining lines, values behind:
row,SMILES,Ki
1,"COCCN(CCOC)Cc1nc(Nc2ccc(C(F)(F)F)cc2)c2ccc(-c3ncccc3C)nc2n1 [Compound 743, [2-{[Bis-(2-methoxy-ethyl)-amino]-methyl}-7-(3-methyl-pyridin-2-yl)-pyrido[2,3-d]pyrimidin-4-yl]-(4-trifluoromethyl-phenyl)-amine]",< 1000 nM
2,"CC(C)(C)c1ccc(Nc2nc(CN3CCC[C@H]3C(=O)O)nc3cc(-c4ncccc4C(F)(F)F)ccc23)cc1 [Compound 744, (S)-1-[4-(4-tert-Butyl-phenylamino)-7-(3-trifluoromethyl-pyridin-2-yl)-quinazolin-2-ylmethyl]-pyrrolidine-2-carboxylic acid]",< 1000 nM
3,"CC(C)(C)c1ccc(Nc2nc(CN3CCC[C@@H]3C(=O)O)nc3cc(-c4ncccc4C(F)(F)F)ccc23)cc1 [Compound 745, (R)-1-[4-(4-tert-Butyl-phenylamino)-7-(3-trifluoromethyl-pyridin-2-yl)-quinazolin-2-ylmethyl]-pyrrolidine-2-carboxylic acid]",< 1000 nM
4,"Cc1cccnc1-c1ccc2c(Nc3ccc(C(F)(F)F)cc3)nc(CN3CCC[C@H]3C(=O)O)nc2n1 [Compound 747, (S)-1-[7-(3-Methyl-pyridin-2-yl)-4-(4-trifluoromethyl-phenylamino)-pyrido[2,3-d]pyrimidin-2-ylmethyl]-pyrrolidine-2-carboxylic acid]",< 1000 nM
5,"C[C@@H]1CN(Cc2nc(Nc3ccc(C(F)(F)F)cc3)c3ccc(-c4ncccc4C(F)(F)F)nc3n2)C[C@H](C)O1 [Compound 748, [2-(2,6-Dimethyl-morpholin-4-ylmethyl)-7-(3-trifluoromethyl-pyridin-2-yl)-pyrido[2,3-d]pyrimidin-4-yl]-(4-trifluoromethyl-phenyl)-amine (cis)]",< 1000 nM
6,"COCCN(CCOC)Cc1nc(Nc2ccc(C(F)(F)F)cc2)c2ccc(-c3ncccc3C(F)(F)F)nc2n1 [Compound 749, [2-{[Bis-(2-methoxy-ethyl)-amino]-methyl}-7-(3-trifluoromethyl-pyridin-2-yl)-pyrido[2,3-d]pyrimidin-4-yl]-(4-trifluoromethyl-phenyl)-amine]",< 1000 nM
7,"CC1(C)CCCN(Cc2nc(Nc3ccc(C(F)(F)F)cc3)c3ccc(-c4ncccc4C(F)(F)F)nc3n2)C1 [Compound 750, [2-(3,3-Dimethyl-piperidin-1-ylmethyl)-7-(3-trifluoromethyl-pyridin-2-yl)-pyrido[2,3-d]pyrimidin-4-yl]-(4-trifluoromethyl-phenyl)-amine]",< 1000 nM
